Data reported in US6893821B2, “Agents that modulate DNA-PK activity and methods of use thereof” (The Regents of the University of California, priority 2000, dated 2005).

Tested on: bone marrow derived macrophages (BMDM)
Assay: Northern blot of IL-6 and IL-12 mRNA in BMDM
Type: cell-based, mice
Procedure: PCR were performed under the following conditions by appropriate cycling number (94° C. for 30 seconds; 65° C. for 30 seconds; and 68° C. for 30 seconds). PCR products were visualized by electrophoresis on 1.5% TAE agarose gels after being stained with ethidium bromide. BMDM isolated from either wild type or Ku 70^−/− mice were treated with ISS (10 μg/ml) or LPS (10 μg/ml) or left untreated for 6.5 hours. Total RNA was isolated and 10 μg of total RNA was separated on 1% agarose gel and then transferred onto a nylon membrane. The membrane was probed with [^32P]-labeled IL-6 or IL-12 or GAPDH cDNA followed by autoradiography, as described previously. Chu et al. (1999) Immunity 11:1.
BMDM (2.5×10^5/well) from wt, or Ku70^−/− and Ku80^−/− mice were treated with LPS (1 μg/ml), ISS-ODN (5 μg/ml) or M-ODN (5 μg/ml) for 24 hours. IL-6 (A) or IL-12 (B) levels in the supernatants were determined by ELISA. Results are means±S.D, of 5 separate experiments for wt and Ku70^−/− and 3 separate experiments for Ku80^−/− mice. (C) BMDM were incubated with LPS (10 μg/ml) or ISS-ODN (5 μg/ml) for 6.5 hours. Total RNA was isolated and analyzed for the presence of IL-6, IL-12 and GAPDH messages by a Northern blot assay, as described in Example 1. Results are means±S.D. of 5 separate experiments for wt and Ku70^−/− and 3 separate experiments for Ku80^−/− mice. […]

Q: What does the source list for 5′-TGACTGTGAACGTTCGAGATGA-3′ [ISS-ODN]?
A: induction of IL-6 and IL-12 mRNAs (DNA-PKcs-deficient BMDM): Little induction; induction of IL-6 and IL-12 mRNA (Northern blot) (Ku70-/- or Ku80-/- BMDM, 6.5 hours): lack of induction
